Marks after values point to notes of the source that are not given here.
Tests used:
[1] = Tolerability (AST, ALT, clinical signs, hematology) in non-human primates; format: in vivo; settings: single dose 0.05, 0.3 or 1.0 mpk, intravenous infusion 60 minutes
Method: The tolerability and efficacy of nanoparticle compositions to non-human primates was also investigated using a sample formulation including Compound 18. The formulation was prepared according to the standard MC3 formulation described above and included an hEPO mRNA. Primates were administered a single dose of 0.05 (Group 1), 0.3 (Group 2), or 1.0 (Group 3) mpk via intravenous infusion for 60 minutes. Three primates were administered each dose. Expression of hEPO was measured prior to dosing and at 2, 6, 24, 48, and 96 hours post-treatment (Table 26). Table 28 includes levels of indicators of complement activation, while Table 29 includes cytokine induction data.
In general, lower doses were better tolerated. High doses induced body temperature elevation and hunched posture, which is similar to the behavior observed for primates administered higher doses of MC3 formulations.

hEPO mRNA [2] = assay: hEPO expression after subcutaneous administration to mice; format: in vivo, CD-1 mice; settings: 6 hr. time point, relative to MC3
Method: The numbers 1-11 in this figure correspond to MC3, PBS, and Compounds 18, 25, 48, 49, 111, 60, 168, 207, and 233, respectively.
FIG. 27 is a graph showing the hEPO mRNA expression in CD1-mice measured 3 h (left block), 6 h (middle block) and 24 h (right block) after subcutaneous administration of various nanoparticle compositions at 0.5 mpk. Numbers 1-9 refer to compositions containing an mRNA expressing hEPO and the following: 1: PBS, 2: Compound 18, 3: Compound 30; 4: Compound 96; 5: Compound 151; 6: Compound 98; 7: Compound 163; 8: Compound 164; 9: Compound 165.

[3] = Metabolite identification of Compound 18 incubated with human plasma; format: in vitro ADME; parameters: key to Detection at 0 min / Detection at 30 min / Detection at 60 min / Detection at 90 min: +: Detected; ND: Not detected
Method: Metabolite Identification: Compound 18 (10 μM) was incubated with human plasma (29.0 mg protein/incubation) in incubation mixtures (200 μL final incubation volume) that consisted of 50/50 v/v neat plasma (undiluted)/substrate solution in 50 mM phosphate buffer, pH 7.4). The plasma was obtained from male and female donors and contained K2EDTA anticoagulant. Reactions were started by addition of the substrate solution to human plasma and were stopped at four designated time points (0, 30, 60 and 90 min) by the addition of 600 μL of stop reagent (acetonitrile). Stopped incubation samples were centrifuged (e.g., 10,000×g for 10 min at 10° C.) and the supernatant fractions were analyzed by LC-MS/MS to characterize the metabolites formed from compound 18. Additional incubations were performed with the positive control procaine […] to establish competency of the test system. Samples were analyzed by LC-MS/MS.
In vitro metabolite identification studies using compound 18 were also performed. […] The disappearance of parent compound 18 and the primary metabolite, compound 166, from mouse liver tissue was measured after dosing 0.25 mg/kg mRNA on days 1, 8, and 15.

[4] = Lipid clearance: mouse liver tissue level and % dose remaining in liver after intravenous administration; format: in vivo
hEPO mRNA [5] = assay: hEPO expression and pharmacokinetic parameters after intravenous infusion to non-human primates; format: in vivo; settings: 0.01 mpk, iv infusion 60 minutes, cynomolgus monkeys
hEPO mRNA [6] = assay: Pretreatment study (methotrexate or dexamethasone) with MC3 formulation in Cynomolgus monkeys; format: in vivo; settings: once weekly for four weeks, absence of any pretreatment
From the text: In order to combat negative effects, nanoparticle compositions are co-administered with one or more substances (e.g., co-medications or additional therapeutic and/or prophylactics) to subjects. Potentially useful additional therapeutic and/or prophylactics include steroids (e.g., corticosteroids), anti-histamines, H1 receptor blockers, H2 receptor blockers, anti-inflammatory compounds, statins, BTK inhibitors, S1P1 agonists, glucocorticoid receptor modulators (GRMs), and estradiols. Non-human primates are pretreated with one or more additional therapeutic agents selected from dexamethasone and acetaminophen. The additional therapeutic agent is administered either 24 hours, 1 hour, or both 24 hours and 1 hour before administration of a nanoparticle composition. Cytokine profiles, inflammation, and other parameters are measured and compared to evaluate the effectiveness of pretreatment
The effects of pretreatment to non-human primates were evaluated using a standard MC3 formulation including an mRNA encoding hEPO. Male monkeys were administered the nanoparticle composition once weekly for four weeks at a dose rate of 5 ml/kg/h and were pretreated with either methotrexate or dexamethasone.
As shown, in the absence of any pretreatment, maximal expression levels decreased nearly 70% over the course of the study.

[7] = MC3 single cell necrosis in rat liver and liver enzymes (ALT, AST); format: in vivo; settings: rats, 0.3 mg/kg MC3-based LNP
Method: FIG. 37 is a series of graphs illustrating MC3 single cell necrosis in rat liver and liver enzyme. The top row is a pair of images of livers of rats administered with 0.3 mg/kg of a […] (LNP) not containing an mRNA (right) and PBS (phosphate buffered saline) as a control (left). The bottom row is a pair of graphs showing expression of ALT (left) and AST(right) in the liver following administration of a 0.3 mg/kg of a MC3-based LNP containing an mRNA.

[8] = LNP formulation characterization (particle size, PDI, RNA encapsulation, endotoxin); format: physicochemical; settings: ± SD within one assay run
Method: Preparation of LNP formulations: Lipids were dissolved in ethanol at molar ratios of 50:10:38.5:1.5 (ionizable lipid: DSPC: cholesterol:PEG-lipid). The lipid mixture was combined with a 6.25 mM sodium acetate buffer (pH 5) containing mRNA at a ratio of 3:1 (aqueous:ethanol) using a microfluidic mixer. Formulations were dialyzed against phosphate buffered saline (pH 7.4) in dialysis cassettes for at least 18 hours. Formulations were concentrated via centrifugal filtration, passed through a 0.22-μm filter and stored at 4° C. until use. […] The apparent pKa of the LNP formulation was determined via a TNS assay.

Sprague Dawley rat liver = assay: Lipid remaining in rat liver tissue 48 h post dose (LC-MS/MS); format: in vivo; settings: Sprague Dawley rat liver 48 h after 2 mg/kg bolus dose mRNA
From the text: Similar results were obtained in the Sprague Dawley rats using human erythropoietin (hEPO) encoding mRNA (FIG. 29C). […] Compound 18 and compound 25 provided a good balance of delivery efficiency and pharmacokinetics.

Sprague Dawley rat = settings: 0.3 mg/kg dose mRNA; cited from earlier work

SMILES	Tolerability [1]	Novel lipid/MC3 expression ratio, s.c. hEPO 0.5 mpk (hEPO mRNA [2])	Detection at 0 min ([3]; Compound 18 (10 μM), human plasma (29.0 mg protein/incubation), 0 min)	Detection at 30 min ([3]; Compound 18 (10 μM), human plasma, 30 min)	Detection at 60 min ([3]; Compound 18 (10 μM), human plasma, 60 min)	Detection at 90 min ([3]; Compound 18 (10 μM), human plasma, 90 min)	initial step of metabolism ([3]; in vitro metabolite identification studies)	% Dose Remaining in Liver 6 h ([4]; first column headed 6 h (Table 3D))	% Remaining dose at 6 h ([4]; mouse liver, 6 h)	% Remaining dose at 24 h ([4]; mouse liver, 24 h)	concentration at 6 h ([4]; mouse, liver, 0.5 mg/kg, 6 h)	concentration at 24 h ([4]; mouse, liver, 0.5 mg/kg, 24 h)	% Dose Remaining in Liver 6 h ([4]; second column headed 6 h (Table 3D))	AUC Lipid/MC3 Ratio (hEPO mRNA [5])	Decrease of maximal expression levels over the course of the study (hEPO mRNA [6])	ALT, AST and liver pathology [7]	% Encapsulation [8]	PDI (polydispersity index) [8]	% dose remaining Rat liver tissue, 48 h (Sprague Dawley rat liver)	ALT, AST and pathology of MC3-based mRNA LNP (Sprague Dawley rat)
CCCCCCCCCOC(=O)CCCCCCCN(CCO)CCCCCCCC(=O)OC(CCCCCCCC)CCCCCCCC [Compound 18, Heptadecan-9-yl 8-((2-hydroxyethyl)(8-(nonyloxy)-8-oxooctyl)amino)octanoate]	tolerated similarly to the MC3 formulation	4.26	+	+	+	+	hydrolysis of the primary ester													
CCCCCC=CCC=CCCCCCCCCC(CCCCCCCCC=CCC=CCCCCC)OC(=O)CCCN(C)C (centres unmarked) [MC3, heptatriaconta-6,9,28,31-tetraen-19-yl 4-(dimethylamino)butanoate, reference compound]								80%	>98%	79.7%	85400 ng/g	67400 ng/g	54%	1.0	~70%	ALT and AST were elevated and pathology showed evidence of necrosis	97.3 ± 1.9%	0.11 ± 0.04	61^e %	ALT and AST were elevated and pathology showed evidence of necrosis

— patent US10857105B2, “Compounds and compositions for intracellular delivery of therapeutic agents” (ModernaTX, Inc., priority 2017, dated 2020)
